The record followed here is patent US20090137572A1, “2-substituted-4-heteroaryl-pyrimidines useful for the treatment of proliferative disorders” (priority 2004, published 2009).

In series [1] the target is CDK1-cyclin B (Homo sapiens, UniProt P06493). Kind of series: Kinase assay (radioactive phosphate incorporation), CDK1-cyclin B. Type of series: biochemical. The following applies: read-out: Kinase Inhibition pIC50 CDK1-cyclin B (converted). The method, boiled down: (§1)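 Recombinant active enzyme (2-4 μg) with suitable polypeptide substrate in 25 mM β-glycerophosphate, 20 mM MOPS, 5 mM EGTA, 1 mM DTT, 1 mM […], pH 7.4. Started with 15 mM MgCl2/100 μM ATP plus [γ-32P]-ATP, incubated at 30° C; 32P incorporation captured on filter plates and counted by scintillation.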

For series [2], the target named is CDK2-cyclin A (Homo sapiens, UniProt P24941). Kind of series: Kinase assay (radioactive phosphate incorporation), CDK2-cyclin A. Type of series: biochemical. The note with it: read-out: Kinase Inhibition pIC50 CDK2-cyclin A (converted). The protocol: Kinase assays. The compounds of the invention above were investigated for their ability to inhibit the enzymatic activity of various protein kinases (Table 2). This was achieved by measurement of incorporation of radioactive phosphate from ATP into appropriate polypeptide substrates. Recombinant protein kinases and kinase complexes were produced or obtained commercially. Assays were performed using 96-well plates and appropriate assay buffers (typically 25 mM β-glycerophosphate, 20 mM MOPS, 5 mM EGTA, 1 mM DTT, 1 mM […], pH 7.4), into which were added 2-4 μg of active enzyme with appropriate substrates. The reactions were initiated by addition of Mg/ATP mix (15 mM MgCl2+100 μM ATP with 30-50 kBq per well of [γ-^32P]-ATP) and mixtures incubated as required at 30° C. Reactions were stopped on ice, followed by filtration through p81 filterplates or GF/C filterplates (Whatman Polyfiltronics, Kent, UK). After washing 3 times with 75 mM aq orthophosphoric acid, plates were dried, scintillant added and incorporated radioactivity measured in a scintillation counter (TopCount, Packard Instruments, Pangbourne, Berks, UK). Compounds for kinase assay were made up as 10 mM stocks in DMSO and diluted into 10% DMSO in assay buffer.

Series [3] deals with CDK2-cycline E (Homo sapiens, UniProt P24941). Kind of series: Kinase assay (radioactive phosphate incorporation), CDK2-cyclin E. The class given is biochemical. The note with it: read-out: Kinase Inhibition pIC50 CDK2-cycline E (converted). The method, boiled down:
as §1

Series [4] deals with CDK4-cyclin D1 (Homo sapiens, UniProt P11802). Kind of series: Kinase assay (radioactive phosphate incorporation), CDK4-cyclin D1. The note with it: read-out: Kinase Inhibition pIC50 CDK4-cyclin D1 (converted). The class given is biochemical. The method, boiled down:
as §1

The target of series [5] is CDK7/cyclin H (Homo sapiens, UniProt P50613). Kind of series: CDK 7 assay (CTD peptide substrate). The class given is biochemical. The note with it: read-out: Kinase Inhibition pIC50 CDK7-cyclin H (converted). The essentials: (§2)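 Recombinant human kinase/cyclin complex (0.5-2 μg) with biotinylated CTD heptapeptide-repeat substrate and test compound, 45 min at 30° C in MOPS pH 7.2 buffer with 15 mM MgCl2 and 100 μM ATP traced with [γ-32P]ATP. Avidin added, P81 filter capture, phosphoric acid washes, scintillation counting of 32P incorporation.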

The target in series [6] is CDK9/cyclin T1 (Homo sapiens, UniProt P50750). Kind of series: CDK 9 assay (CTD peptide substrate). The note with it: read-out: Kinase Inhibition pIC50 CDK9-cyclin T1 (converted). The class given is biochemical. The essentials:
as §2

In series [7] the target is T1, Flt3 (FMS-like tyrosine kinase-3) (Homo sapiens, UniProt P36888).
T1 sequence (P36888 27-993): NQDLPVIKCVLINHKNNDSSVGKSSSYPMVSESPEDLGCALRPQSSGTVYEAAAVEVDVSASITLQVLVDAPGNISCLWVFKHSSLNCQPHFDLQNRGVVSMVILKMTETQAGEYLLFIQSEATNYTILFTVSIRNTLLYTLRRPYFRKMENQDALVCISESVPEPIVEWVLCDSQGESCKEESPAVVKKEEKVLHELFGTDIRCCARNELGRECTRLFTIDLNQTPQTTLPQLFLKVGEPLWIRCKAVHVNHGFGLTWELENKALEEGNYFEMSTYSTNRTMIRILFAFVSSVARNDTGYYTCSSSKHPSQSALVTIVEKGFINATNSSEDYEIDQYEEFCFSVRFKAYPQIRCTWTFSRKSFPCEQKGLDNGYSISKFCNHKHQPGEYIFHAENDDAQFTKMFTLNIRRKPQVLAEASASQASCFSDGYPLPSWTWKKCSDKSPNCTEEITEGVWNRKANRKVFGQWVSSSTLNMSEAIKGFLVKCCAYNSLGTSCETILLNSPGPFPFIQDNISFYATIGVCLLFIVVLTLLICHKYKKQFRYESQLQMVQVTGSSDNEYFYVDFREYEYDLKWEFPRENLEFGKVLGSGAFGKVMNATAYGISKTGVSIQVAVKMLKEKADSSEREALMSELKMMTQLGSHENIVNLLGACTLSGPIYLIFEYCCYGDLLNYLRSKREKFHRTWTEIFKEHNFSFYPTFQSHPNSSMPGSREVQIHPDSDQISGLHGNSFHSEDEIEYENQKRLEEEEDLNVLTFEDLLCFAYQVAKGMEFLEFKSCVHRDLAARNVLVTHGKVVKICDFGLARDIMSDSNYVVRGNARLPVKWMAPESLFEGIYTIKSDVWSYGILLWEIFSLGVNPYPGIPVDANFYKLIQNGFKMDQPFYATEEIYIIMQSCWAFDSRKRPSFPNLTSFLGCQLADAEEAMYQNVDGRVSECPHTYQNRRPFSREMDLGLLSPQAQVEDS
Kind of series: Kinase assay (radioactive phosphate incorporation), Flt3. The class given is biochemical. The note with it: pIC50 is -log(IC50, M), read-out: Kinase Inhibition pIC50 Flt3 (converted). The essentials:
as §1

Series [8] deals with T2, Aurora A kinase (Homo sapiens, UniProt O14965).
T2 construct: purchased
T2 sequence (O14965 1-403): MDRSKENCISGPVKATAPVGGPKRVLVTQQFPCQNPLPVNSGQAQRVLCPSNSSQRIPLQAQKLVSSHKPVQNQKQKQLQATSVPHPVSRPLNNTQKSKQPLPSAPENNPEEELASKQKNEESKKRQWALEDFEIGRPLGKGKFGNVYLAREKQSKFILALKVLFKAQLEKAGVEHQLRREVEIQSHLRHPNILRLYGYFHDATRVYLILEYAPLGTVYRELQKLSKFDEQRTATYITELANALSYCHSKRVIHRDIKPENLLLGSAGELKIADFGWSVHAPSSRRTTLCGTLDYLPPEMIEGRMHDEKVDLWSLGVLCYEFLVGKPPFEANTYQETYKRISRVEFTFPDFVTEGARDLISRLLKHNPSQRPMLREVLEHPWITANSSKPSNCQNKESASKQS
Kind of series: Aurora-A (human) kinase assay (Kemptide substrate). Type of series: biochemical. The following applies: pIC50 is -log(IC50, M); 15 μM ATP; read-out: Kinase Inhibition pIC50 Aurora A kinase (converted). The method, boiled down:
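Radiometric filter-binding assay: commercial aurora-A kinase (5-10 ng) with 200 μM Kemptide in MOPS/EDTA pH 7.0, started with 10 mM Mg acetate and 15 μM ATP plus [γ-33P]-ATP. Incubated 40 min at room temperature, stopped with phosphoric acid, incorporated 33P counted by scintillation.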

Series [9] concerns the target GSK3b (Homo sapiens, UniProt P49841). Kind of series: Kinase assay (radioactive phosphate incorporation), GSK-3b. The note with it: read-out: Kinase Inhibition pIC50 GSK-3b (converted). The class given is biochemical. The method, boiled down: as §1

Sequence of CDK7/cyclin H (P50613 whole entry): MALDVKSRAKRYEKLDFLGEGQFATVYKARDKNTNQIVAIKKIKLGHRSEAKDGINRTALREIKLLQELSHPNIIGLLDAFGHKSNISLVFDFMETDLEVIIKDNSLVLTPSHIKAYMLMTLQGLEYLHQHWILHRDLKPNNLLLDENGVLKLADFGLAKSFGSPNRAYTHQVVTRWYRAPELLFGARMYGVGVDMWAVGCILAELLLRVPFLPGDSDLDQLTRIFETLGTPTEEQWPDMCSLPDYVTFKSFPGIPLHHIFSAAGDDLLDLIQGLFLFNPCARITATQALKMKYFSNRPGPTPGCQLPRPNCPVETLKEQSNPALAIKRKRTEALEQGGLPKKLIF
Sequence of CDK7/cyclin H (P51946 whole entry partner): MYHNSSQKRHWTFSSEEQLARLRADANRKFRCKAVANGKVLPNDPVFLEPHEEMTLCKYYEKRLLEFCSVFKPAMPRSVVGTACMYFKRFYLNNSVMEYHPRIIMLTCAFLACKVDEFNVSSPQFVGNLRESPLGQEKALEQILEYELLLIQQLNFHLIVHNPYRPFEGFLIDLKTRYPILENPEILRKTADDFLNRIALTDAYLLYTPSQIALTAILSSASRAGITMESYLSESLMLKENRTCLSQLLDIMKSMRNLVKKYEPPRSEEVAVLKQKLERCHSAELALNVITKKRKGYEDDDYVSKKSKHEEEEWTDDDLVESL
Sequence of CDK1-cyclin B (P06493 whole entry): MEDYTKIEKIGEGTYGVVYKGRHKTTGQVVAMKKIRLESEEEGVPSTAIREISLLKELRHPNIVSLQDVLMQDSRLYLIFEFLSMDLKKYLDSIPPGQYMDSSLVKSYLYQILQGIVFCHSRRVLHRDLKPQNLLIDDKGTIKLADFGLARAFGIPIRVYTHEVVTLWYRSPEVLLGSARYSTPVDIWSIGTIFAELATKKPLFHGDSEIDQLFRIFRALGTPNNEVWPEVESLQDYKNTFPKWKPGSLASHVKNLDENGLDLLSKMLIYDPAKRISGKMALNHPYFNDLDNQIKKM
Sequence of CDK1-cyclin B (P14635 whole entry partner): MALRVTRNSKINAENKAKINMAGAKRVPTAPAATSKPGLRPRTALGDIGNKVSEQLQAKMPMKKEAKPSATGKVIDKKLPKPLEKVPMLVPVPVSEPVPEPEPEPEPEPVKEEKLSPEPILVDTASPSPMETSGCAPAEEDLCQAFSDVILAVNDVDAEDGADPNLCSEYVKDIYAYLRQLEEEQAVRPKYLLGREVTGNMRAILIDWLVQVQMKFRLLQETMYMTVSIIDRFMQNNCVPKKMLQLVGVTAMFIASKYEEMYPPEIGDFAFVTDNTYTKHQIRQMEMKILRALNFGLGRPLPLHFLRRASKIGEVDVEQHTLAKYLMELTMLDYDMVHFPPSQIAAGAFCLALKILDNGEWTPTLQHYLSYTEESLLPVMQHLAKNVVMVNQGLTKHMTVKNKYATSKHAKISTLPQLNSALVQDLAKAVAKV
Sequence of CDK9/cyclin T1 (P50750 whole entry): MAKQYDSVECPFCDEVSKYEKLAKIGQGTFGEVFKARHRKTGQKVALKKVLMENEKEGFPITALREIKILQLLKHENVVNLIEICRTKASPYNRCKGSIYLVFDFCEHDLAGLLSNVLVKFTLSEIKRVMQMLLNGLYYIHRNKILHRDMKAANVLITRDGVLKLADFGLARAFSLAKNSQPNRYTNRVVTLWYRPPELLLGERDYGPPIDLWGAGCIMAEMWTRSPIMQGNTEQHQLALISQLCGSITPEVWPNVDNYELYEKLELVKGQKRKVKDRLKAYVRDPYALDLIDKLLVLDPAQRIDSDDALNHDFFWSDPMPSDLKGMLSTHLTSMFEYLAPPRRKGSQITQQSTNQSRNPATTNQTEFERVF
Sequence of CDK9/cyclin T1 (O60563 whole entry partner): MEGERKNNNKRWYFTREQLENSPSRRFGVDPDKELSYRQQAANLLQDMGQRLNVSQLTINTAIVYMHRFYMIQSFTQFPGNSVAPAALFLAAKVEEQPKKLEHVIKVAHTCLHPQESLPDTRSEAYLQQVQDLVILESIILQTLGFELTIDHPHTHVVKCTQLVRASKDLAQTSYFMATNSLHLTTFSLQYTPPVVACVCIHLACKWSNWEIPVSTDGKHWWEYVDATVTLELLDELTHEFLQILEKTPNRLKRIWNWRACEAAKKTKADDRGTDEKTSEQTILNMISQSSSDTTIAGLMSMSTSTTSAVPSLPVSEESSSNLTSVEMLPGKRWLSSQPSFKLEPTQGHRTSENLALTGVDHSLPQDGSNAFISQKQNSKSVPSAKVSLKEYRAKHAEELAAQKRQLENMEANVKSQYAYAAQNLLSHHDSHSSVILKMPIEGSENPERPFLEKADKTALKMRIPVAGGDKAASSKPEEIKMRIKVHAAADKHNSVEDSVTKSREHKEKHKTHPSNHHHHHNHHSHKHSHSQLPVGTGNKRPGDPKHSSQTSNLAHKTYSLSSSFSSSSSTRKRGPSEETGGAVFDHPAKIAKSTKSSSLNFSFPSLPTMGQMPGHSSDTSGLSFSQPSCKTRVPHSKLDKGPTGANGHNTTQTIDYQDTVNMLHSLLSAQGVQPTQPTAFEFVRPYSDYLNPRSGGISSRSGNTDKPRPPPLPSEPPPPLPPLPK
Sequence of GSK3b (P49841 whole entry, species assumed): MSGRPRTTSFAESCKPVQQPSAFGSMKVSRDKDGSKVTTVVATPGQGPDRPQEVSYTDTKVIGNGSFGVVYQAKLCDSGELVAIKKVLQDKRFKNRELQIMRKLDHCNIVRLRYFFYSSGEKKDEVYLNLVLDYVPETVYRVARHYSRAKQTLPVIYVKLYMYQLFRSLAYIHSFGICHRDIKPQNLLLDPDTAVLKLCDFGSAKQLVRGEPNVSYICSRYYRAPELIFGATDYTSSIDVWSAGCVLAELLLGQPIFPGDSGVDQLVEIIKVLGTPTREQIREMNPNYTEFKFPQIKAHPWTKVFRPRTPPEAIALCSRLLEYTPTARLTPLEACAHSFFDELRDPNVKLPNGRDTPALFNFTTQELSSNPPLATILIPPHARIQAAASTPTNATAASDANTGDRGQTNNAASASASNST
Sequence of CDK4-cyclin D1 (P11802 whole entry): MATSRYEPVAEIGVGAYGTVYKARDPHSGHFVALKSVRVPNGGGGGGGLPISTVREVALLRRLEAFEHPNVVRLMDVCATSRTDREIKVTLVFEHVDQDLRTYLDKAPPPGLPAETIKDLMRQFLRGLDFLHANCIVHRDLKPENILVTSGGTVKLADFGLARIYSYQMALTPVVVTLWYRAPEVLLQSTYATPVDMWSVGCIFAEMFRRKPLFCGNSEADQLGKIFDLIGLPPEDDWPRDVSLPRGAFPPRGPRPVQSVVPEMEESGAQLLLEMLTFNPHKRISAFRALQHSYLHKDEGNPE
Sequence of CDK4-cyclin D1 (P24385 whole entry partner): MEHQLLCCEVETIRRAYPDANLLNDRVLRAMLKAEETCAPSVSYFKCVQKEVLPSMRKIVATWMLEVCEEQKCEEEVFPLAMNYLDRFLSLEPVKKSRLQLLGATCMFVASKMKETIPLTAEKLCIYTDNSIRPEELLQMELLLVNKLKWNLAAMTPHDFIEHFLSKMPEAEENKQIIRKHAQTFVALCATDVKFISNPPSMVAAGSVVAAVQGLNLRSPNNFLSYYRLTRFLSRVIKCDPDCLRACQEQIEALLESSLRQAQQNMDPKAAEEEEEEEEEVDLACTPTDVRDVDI

`CCNc1nc(C)c(-c2ccnc(Nc3ccc(N4CCN(Cc5ccccc5)CC4)cc3)n2)s1` [Compound 60, [4-(4-Benzyl-piperazin-1-yl)-phenyl]-[4-(2-ethylamino-4-methyl-thiazol-5-yl)-pyrimidin-2-yl]-amine]: the IC50 in series [1] was 6310 nM; in [2], 3160 nM; in [3] it was 631 nM; in series [4], 158 nM; in series [5] it was 200 nM; in series [6] it was 316 nM. The figures for the IC50 in series [7] and in series [8] were 39.8 nM and 50.1 nM, respectively.
For the compound `Cc1nc(N)sc1-c1ccnc(Nc2ccc(N3CCNCC3)cc2)n1` [Compound 61, [4-(2-Amino-4-methyl-thiazol-5-yl)-pyrimidin-2-yl]-(4-piperazin-1-yl-phenyl)-amine], the IC50 was 6310 nM in series [1]; 2000 nM in series [2]; 398 nM in [3]; 251 nM in series [4]; 398 nM in [5]; 158 nM in [6]. Further, the figures for the IC50 in [7] and in series [8] were 63.1 nM and 20 nM, respectively.
For the compound `CNc1nc(C)c(-c2ccnc(Nc3cccc(N4CCNCC4)c3)n2)s1` [Compound 7, [4-(4-Methyl-2-methylamino-thiazol-5-yl)-pyrimidin-2-yl]-(3-piperazin-1-yl-phenyl)-amine], the IC50 in series [1] is 3160 nM; in series [2], 2510 nM; in series [3] it was 398 nM; in series [4], 1000 nM; in series [5], 631 nM; in series [6] it was 200 nM. In addition, the IC50 is 12.6 nM in [7] and 200 nM in series [8].
On to `CCNc1nc(C)c(-c2ccnc(Nc3cccc(CNS(=O)(=O)C(F)(F)F)c3)n2)s1` [Compound 10, N-{3-[4-(2-Ethylamino-4-methyl-thiazol-5-yl)-pyrimidin-2-ylamino]-benzyl}-C,C,C-trifluoro-methanesulfonamide], for which the IC50 was 6310 nM in series [2]; 1580 nM in series [3]; 6310 nM in series [5]; 316 nM in series [6]; 6310 nM in [9]; 158 nM in series [7]. Further, the IC50 in [8] was 2000 nM.
Regarding `CCNc1nc(C)c(-c2ccnc(Nc3cccc(S(C)(=O)=O)c3)n2)s1` [Compound 28, [4-(2-Ethylamino-4-methyl-thiazol-5-yl)-pyrimidin-2-yl]-(3-methanesulfonyl-phenyl)-amine], the IC50 is 794 nM in [2]; 15.8 nM in [3]; 251 nM in series [4]; 100 nM in series [5]; 3.16 nM in series [6]; 631 nM in [9]. Moreover, the IC50 in [7] was 79.4 nM.
In the case of `CCNS(=O)(=O)c1cccc(Nc2nccc(-c3sc(NC)nc3C)n2)c1` [Compound 31, N-Ethyl-3-[4-(4-methyl-2-methylamino-thiazol-5-yl)-pyrimidin-2-ylamino]-benzenesulfonamide], the IC50 in series [1] is 501 nM; in [2], 1260 nM; in [3], 251 nM; in series [4], 50.1 nM; in [5], 1000 nM; in [6] it was 20 nM. Further, the IC50 in [7] and in series [8] was 63.1 nM each time.
Take `CCNc1nc(C)c(-c2ccnc(Nc3cccc(CC(=O)OCCOC)c3)n2)s1` [Compound 45, {3-[4-(2-Ethylamino-4-methyl-thiazol-5-yl)-pyrimidin-2-ylamino]-phenyl}-acetic acid 2-methoxy-ethyl ester]: the IC50 in series [1] is 5010 nM; in series [2] it was 3160 nM; in [3], 2510 nM; in [4], 3160 nM; in series [5], 3980 nM; in series [6], 398 nM. The IC50 was 100 nM in series [7] and 15.8 nM in [8].
As to `Cc1nc(N)sc1-c1ccnc(Nc2cccc(CNS(C)(=O)=O)c2)n1` [Compound 6, N-{3-[4-(2-Amino-4-methyl-thiazol-5-yl)-pyrimidin-2-ylamino]-benzyl}-methanesulfonamide], the IC50 is 1000 nM in series [1]; 398 nM in series [2]; 100 nM in series [3]; 200 nM in [4]; 126 nM in [5]; 7.94 nM in series [6]. The IC50 in [7] is 50.1 nM; in series [8] it was 126 nM.
Turning to `COCCNS(=O)(=O)c1cccc(Nc2nccc(-c3sc(C)nc3C)n2)c1` [Compound 56, 3-[4-(2,4-Dimethyl-thiazol-5-yl)-pyrimidin-2-ylamino]-N-(2-methoxy-ethyl)-benzenesulfonamide], the melting point was 197 to 198 °C. In addition, in [2], the IC50 was 3980 nM. Moreover, the IC50 in [5] is 5010 nM. In series [6], the IC50 was 501 nM. Further, the IC50 in [9] is 1260 nM. Further, in [8], the IC50 is 126 nM.
Regarding `CCNc1nc(C)c(-c2ccnc(Nc3cccc(S(=O)(=O)NC)c3)n2)s1` [Compound 22, 3-[4-(2-Ethylamino-4-methyl-thiazol-5-yl)-pyrimidin-2-ylamino]-N-methyl-benzenesulfonamide], the IC50 was 1000 nM in series [1]; 794 nM in series [2]; 100 nM in series [3]; 200 nM in series [4]; 100 nM in series [5]; 39.8 nM in [6]. The IC50 in series [7] is 79.4 nM; in series [8], 63.1 nM.
